Reference: US20250263434A1, “OLIGOPEPTIDE HAVING BLOOD PRESSURE REDUCING EFFECT, AND PREPARATION METHOD THEREFOR AND APPLICATION THEREOF” (South China Agricultural University, priority 2020, published 2025)

Test system: ACE
Assay: Determination of ACE inhibitory activity (HHL substrate, hippuric acid measured by HPLC)
Type: biochemical
Settings: for IC50: ACE inhibition, IC50 found from the inhibition rate vs concentration curve
Description: (2) Determination Method of ACE Inhibitory Activity
10 μL of ACE solution (0.25 U/mL, ACE enzyme was dissolved into pH 7 potassium phosphate buffer) was respectively added into a sample tube (B) and a blank tube (A), 10 μL of ACEI was added into the sample tube, 10 μL of buffer was added into the blank tube, samples were incubated for 5 min at 37° C., then 30 μL of HHL solution ([…], HHL was dissolved into pH 8.3 0.1 mol·L^−1 borate buffer, containing 0.3 mol·L^−1 NaCl) was added, the above materials reacted for 1 h at 37° C., and then 80 μL of 1.0 mol/L HCl was added to terminate the reaction, so as to obtain a reaction solution, seen in Table 2.
Mobile phase and chromatographic conditions: acetonitrile: ultrapure water=25:75 (including 0.1% (V/V) TFA), flow rate: 1 mL/min; detection wavelength: 228 nm; column temperature: 30° C.; injection volume: 20 μL.
Principle: HHL was rapidly decomposed under the catalysis of ACE to produce hippuric acid (Hip) and dipeptide (His-Leu, HL). Hippuric acid has the maximum absorption at 228 nm. When ACEI samples were added, the activity of the ACE enzyme was inhibited and the production amount of hippuric acid was reduced. Therefore, the inhibition rate of ACEI on ACE activity can be evaluated by measuring the production amount of hippuric acid by HPLC.
In the formula, R: an inhibition rate (%) of ACEI sample on ACE; • A: a peak area of hippuric acid in control group • B: a peak area of hippuric acid in ACEI addition group • A0: a peak area of hippuric acid in blank group
Where, IC50 is defined as a concentration of an inhibitor required when a half of ACE enzyme activity is inhibited under certain conditions. There was no a linear relationship between the inhibition rate and the concentration of the formulation, and therefore a curve of a relationship between the inhibition rate and the concentration of the formulation was firstly plotted, and then IC50 was found out from the curve. […]

Substance	IC50 [µg/mL]	IC50 (listed as oligopeptide) [µg/mL]	inhibition rate on ACE (concentration of the sample 1 mg/mL) [%]
LIIPEH [Artificially synthesized monomer H6, Leu-Ile-Ile-Pro-Glu-His, Synthesized LIIPEH by Shanghai jiepeptide Biotechnology Co., Ltd]	56.67 ± 12.02		
LIIPEH [RP-HCLP separated monomer H6, Leu-Ile-Ile-Pro-Glu-His, Oligopeptide LIIPEH separated and purified from rice wine lees]		280.00 ± 5.77	91.72
